How the values were obtained:
mTORC1 = mTORC1 (Homo sapiens, UniProt P42345); assay: mTOR/GbL/Raptor (mTORC1) ELISA Assay; assay type: biochemical; conditions: phosphorylation of 4E-BP1; 0.2 nM mTORC1, 10 μM ATP
Method: The measurement of mTORC1 enzyme activity was performed in an ELISA assay format following the phosphorylation of 4E-BP1 protein. All experiments were performed in the 384-well format. Generally, 0.5 μL DMSO containing varying concentrations of the test compound was mixed with 15 μL enzyme solution. Kinase reactions were initiated with the addition of 15 μL of substrates-containing solution. The assay conditions were as follows; 0.2 nM mTORC1, 10 μM ATP and 50 nM NHis-tagged 4E-BP1 in 20 mM Hepes, pH 7.2, 1 mM DTT, 50 mM NaCl, 10 mM MnCl2, 0.02 mg/mL BSA, 0.01% CHAPS, 50 mM β-glycerophosphate. Following an incubation of 120 minutes at ambient temperature, 20 μL of the reaction volume was transferred to a Ni-Chelate-coated 384-well plate. The binding step of the 4E-BP1 protein proceeded for 60 minutes, followed by washing 4 times each with 50 μL of Tris-buffered saline solution (TBS). Anti-phospho-4E-BP1 rabbit-IgG (20 μL, 1:5000) in 5% BSA-TBST (0.2% Tween-20 in TBS) was added and further incubated for 60 minutes. Incubation with a secondary HRP-tagged anti-IgG was similarly performed after washing off the primary antibody (4 washes of 50 μL). Following the final wash step with TBST, 20 μL of SuperSignal ELISA Femto (Pierce Biotechnology) was added and the luminescence measured using an EnVision plate reader.

PI3Kalpha = PI3Kalpha (Homo sapiens, UniProt P42336); assay: PI3K Biochemical Assays (PI3K-alpha assay); conditions: ATP consumption, luciferase-luciferin; 1 μM ATP, 10 μM PIP2
Method: PI3Kn activity was measured as the percent of ATP consumed following the kinase reaction using luciferase-luciferin-coupled chemiluminescence. Reactions were conducted in 384-well white, medium binding microtiter plates (Greiner). Kinase reactions were initiated by combining test compounds, ATP, substrate (PIP2), and kinase in a 20 μL volume in a buffer solution. The standard PI3Kalpha assay buffer was composed 50 mM Tris, pH 7.5, 1 mM EGTA, 10 mM MgCl2, 1 mM DTT and 0.03% CHAPS. The standard assay concentrations for enzyme, ATP, and substrate were 3 nM, 1 μM, and 10 μM, respectively. The reaction mixture was incubated at ambient temperature for approximately 2 h. Following the kinase reaction, a 10 μL aliquot of luciferase-luciferin mix (Promega Kinase-Glo) was added and the chemiluminescence signal measured using a Victor2 or EnVision (Perkin Elmer). Total ATP consumption was limited to 40-60% and IC50 values of control compounds correlate well with literature references. Substituting PI3Kα with PI3Krβ, PI3Kγ, or PI3Kδ, the inhibitory activity of the compounds for the other isoforms of PI3K were measured. For the PI3Kβ and PI3Kδ assays, enzyme concentrations were 10 nM and 4 nM, respectively. For the PI3Kγ assay, enzyme concentration was 40 nM, the incubation time was 1 h, and the concentration of MgCl2 in the assay buffer was 5 mM.

PI3Kalpha, sequence (P42336 whole entry): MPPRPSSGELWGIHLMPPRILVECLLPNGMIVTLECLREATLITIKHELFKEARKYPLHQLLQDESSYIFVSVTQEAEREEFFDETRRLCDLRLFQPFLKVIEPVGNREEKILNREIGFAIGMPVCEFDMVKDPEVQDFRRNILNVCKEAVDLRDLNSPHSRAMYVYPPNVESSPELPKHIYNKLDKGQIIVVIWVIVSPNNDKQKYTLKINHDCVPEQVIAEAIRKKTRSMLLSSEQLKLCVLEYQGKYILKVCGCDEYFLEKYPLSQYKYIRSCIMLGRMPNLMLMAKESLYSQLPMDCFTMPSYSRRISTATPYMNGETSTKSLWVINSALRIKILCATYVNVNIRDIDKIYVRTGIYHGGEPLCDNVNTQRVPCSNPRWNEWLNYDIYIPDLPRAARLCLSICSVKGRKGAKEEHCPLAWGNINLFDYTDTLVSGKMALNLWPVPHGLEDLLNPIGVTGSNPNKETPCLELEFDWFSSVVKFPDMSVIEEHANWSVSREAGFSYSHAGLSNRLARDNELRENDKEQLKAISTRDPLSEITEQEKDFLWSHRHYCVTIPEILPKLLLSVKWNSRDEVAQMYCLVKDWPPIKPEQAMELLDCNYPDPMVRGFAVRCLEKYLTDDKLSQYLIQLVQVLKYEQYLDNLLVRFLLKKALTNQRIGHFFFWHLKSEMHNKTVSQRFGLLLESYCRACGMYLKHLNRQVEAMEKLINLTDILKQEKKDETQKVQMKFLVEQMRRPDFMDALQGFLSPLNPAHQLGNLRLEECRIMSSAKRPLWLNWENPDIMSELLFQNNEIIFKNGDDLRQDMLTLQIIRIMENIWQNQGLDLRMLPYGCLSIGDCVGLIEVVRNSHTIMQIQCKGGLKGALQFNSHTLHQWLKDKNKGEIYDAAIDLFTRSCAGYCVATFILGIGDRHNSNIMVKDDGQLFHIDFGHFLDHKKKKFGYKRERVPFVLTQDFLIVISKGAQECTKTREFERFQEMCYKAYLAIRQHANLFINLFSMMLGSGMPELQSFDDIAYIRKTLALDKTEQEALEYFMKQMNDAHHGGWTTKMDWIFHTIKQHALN
PI3Kalpha, sequence (P27986 whole entry partner): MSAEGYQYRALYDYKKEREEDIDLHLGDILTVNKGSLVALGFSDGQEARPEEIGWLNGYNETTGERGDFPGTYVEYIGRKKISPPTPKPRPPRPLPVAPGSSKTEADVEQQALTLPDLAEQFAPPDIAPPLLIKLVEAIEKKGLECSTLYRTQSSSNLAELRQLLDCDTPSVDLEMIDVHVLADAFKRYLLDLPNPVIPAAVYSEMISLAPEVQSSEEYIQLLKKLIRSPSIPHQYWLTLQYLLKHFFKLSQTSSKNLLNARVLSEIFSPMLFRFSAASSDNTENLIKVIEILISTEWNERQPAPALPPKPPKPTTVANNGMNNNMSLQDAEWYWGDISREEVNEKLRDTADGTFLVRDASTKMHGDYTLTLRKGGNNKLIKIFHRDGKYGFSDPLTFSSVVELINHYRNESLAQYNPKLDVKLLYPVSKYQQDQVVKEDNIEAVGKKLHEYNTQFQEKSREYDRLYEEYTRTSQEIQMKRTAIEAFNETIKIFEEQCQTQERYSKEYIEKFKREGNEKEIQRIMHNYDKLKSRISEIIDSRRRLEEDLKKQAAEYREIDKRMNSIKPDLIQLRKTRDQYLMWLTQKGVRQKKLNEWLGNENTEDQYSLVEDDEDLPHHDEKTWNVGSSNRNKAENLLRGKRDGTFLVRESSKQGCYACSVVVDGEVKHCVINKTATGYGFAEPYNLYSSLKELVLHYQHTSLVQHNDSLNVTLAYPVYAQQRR

| SMILES | IC50 (mTORC1) | IC50 (PI3Kalpha) |
| --- | --- | --- |
| CC1=Cc2nc(N)nc(N3CCOc4ccc(-c5cnc6sc(N)nc6c5)cc4C3)c2CC1(C)C [Compound 98, 4-[7-(2-amino[1,3]thiazolo[5,4-b]pyridin-6-yl)-2,3-dihydro-1,4-benzoxazepin-4(5H)-yl]-6,6,7-trimethyl-5,6-dihydroquinazolin-2-amine] | ≤ 100 nM | ≤ 100 nM |
| CCCc1c(C)nc(N)nc1N1CCOc2ccc(-c3cnc4sc(N)nc4c3)cc2C1 [Compound 32] | ≤ 100 nM | ≤ 100 nM |
| C#CCc1c(C)nc(N)nc1N1CCOc2ccc(-c3cnc4sc(N)nc4c3)cc2C1 [Compound 71, 6-[4-(2-amino-6-methyl-5-prop-2-yn-1-ylpyrimidin-4-yl)-2,3,4,5-tetrahydro-1,4-benzoxazepin-7-yl][1,3]thiazolo[5,4-b]pyridin-2-amine] | ≤ 100 nM | ≤ 100 nM |
| Cc1nc(N)nc(N2CCOc3ccc(-c4cnc5sc(N)nc5c4)cc3C2)c1-c1cccc(F)c1 [Compound 40, 6-{4-[2-amino-5-(3-fluorophenyl)-6-methylpyrimidin-4-yl]-2,3,4,5-tetrahydro-1,4-benzoxazepin-7-yl}[1,3]thiazolo[5,4-b]pyridin-2-amine] | ≤ 100 nM | ≤ 100 nM |
| Nc1nc(Cl)c(CO)c(N2CCOc3ccc(-c4cnc5sc(N)nc5c4)cc3C2)n1 [Compound 43, {2-amino-4-[7-(2-amino[1,3]thiazolo[5,4-b]pyridin-6-yl)-2,3-dihydro-1,4-benzoxazepin-4(5H)-yl]-6-chloropyrimidin-5-yl}methanol] | 100 to 500 nM | ≤ 100 nM |
| COc1ccc2c(N3CCOc4ccc(-c5cnc6sc(N)nc6c5)cc4C3)nc(C)nc2c1 [Compound 26, 6-{4-[2-methyl-7-(methyloxy)quinazolin-4-yl]-2,3,4,5-tetrahydro-1,4-benzoxazepin-7-yl}[1,3]thiazolo[5,4-b]pyridin-2-amine] | 100 to 500 nM | ≤ 100 nM |
| COCCc1c(C)nc(CN(C)C)nc1N1CCOc2ccc(-c3cnc4sc(N)nc4c3)cc2C1 [Compound 13, 6-(4-{2-[(dimethylamino)methyl]-6-methyl-5-[2-(methyloxy)ethyl]pyrimidin-4-yl}-2,3,4,5-tetrahydro-1,4-benzoxazepin-7-yl)[1,3]thiazolo[5,4-b]pyridin-2-amine] | 100 to 500 nM | ≤ 100 nM |
| Nc1cc(N2CCOc3ccc(-c4cnc5sc(N)nc5c4)cc3C2)ccn1 [Compound 94, 6-[4-(2-aminopyridin-4-yl)-2,3,4,5-tetrahydro-1,4-benzoxazepin-7-yl][1,3]thiazolo[5,4-b]pyridin-2-amine] | 500 to 2500 nM | 500 to 2500 nM |
| Cc1nc(CN(C)C)nc(N2CCOc3ccc(-c4cnc5sc(N)nc5c4)cc3C2)c1Cc1ccc(F)cc1 [Compound 62, 6-(4-{2-[(dimethylamino)methyl]-5-[(4-fluorophenyl)methyl]-6-methylpyrimidin-4-yl}-2,3,4,5-tetrahydro-1,4-benzoxazepin-7-yl)[1,3]thiazolo[5,4-b]pyridin-2-amine] | ≤ 100 nM | ≤ 100 nM |
| CC(C)c1c(F)nc(N)nc1N1CCOc2ccc(-c3cnc4sc(N)nc4c3)cc2C1 [Compound 10, 6-{4-[2-amino-6-fluoro-5-(1-methylethyl)pyrimidin-4-yl]-2,3,4,5-tetrahydro-1,4-benzoxazepin-7-yl}[1,3]thiazolo[5,4-b]pyridin-2-amine] | ≤ 100 nM | ≤ 100 nM |
| Cc1nc(N)nc(N2CCOc3ccc(-c4cnc5sc(N)nc5c4)cc3C2)c1C#N [Compound 72, 2-amino-4-[7-(2-amino[1,3]thiazolo[5,4-b]pyridin-6-yl)-2,3-dihydro-1,4-benzoxazepin-4(5H)-yl]-6-methylpyrimidine-5-carbonitrile] | ≤ 100 nM | ≤ 100 nM |
| CC(=O)NCc1nc(C)c(C(C)C)c(N2CCOc3ccc(-c4cnc5sc(N)nc5c4)cc3C2)n1 [Compound 22, N-({4-[7-(2-amino[1,3]thiazolo[5,4-b]pyridin-6-yl)-2,3-dihydro-1,4-benzoxazepin-4(5H)-yl]-6-methyl-5-(1-methylethyl)pyrimidin-2-yl)methyl)acetamide] | ≤ 100 nM | ≤ 100 nM |
| Cc1nc(N)nc(N2CCOc3ccc(-c4cnc5sc(N)nc5c4)cc3C2)c1C(C)C [Compound 100] | ≤ 100 nM | ≤ 100 nM |
| C=Cc1c(C)nc(N)nc1N1CCOc2ccc(-c3cnc4sc(N)nc4c3)cc2C1 [Compound 52, 6-[4-(2-amino-5-ethenyl-6-methylpyrimidin-4-yl)-2,3,4,5-tetrahydro-1,4-bcnzoxazepin-7-yl][1,3]thiazolo[5,4-b]pyridin-2-amine] | ≤ 100 nM | ≤ 100 nM |
| Cc1nc2c(c(N3CCOc4ccc(-c5cnc6sc(N)nc6c5)cc4C3)n1)CC(C)(C)CC2 [Compound 59, 6-[4-(2,6,6-trimethyl-5,6,7,8-tetrahydroquinazolin-4-yl)-2,3,4,5-tetrahydro-1,4-benzoxazepin-7-yl][1,3]thiazolo[5,4-b]pyridin-2-amine] | ≤ 100 nM | ≤ 100 nM |
| CCN(CC)Cc1nc(C)c(C(C)C)c(N2CCOc3ccc(-c4cnc5sc(N)nc5c4)cc3C2)n1 [Compound 4, 6-(4-{2-[(diethylamino)methyl]-6-methyl-5-(1-methylethyl)pyrimidin-4-yl}-2,3,4,5-tetrahydro-1,4-benzoxazepin-7-yl)[1,3]thiazolo[5,4-b]pyridin-2-amine] | ≤ 100 nM | ≤ 100 nM |
| COC(=O)Cc1c(C)nc(CN(C)C)nc1N1CCOc2ccc(-c3cnc4sc(N)nc4c3)cc2C1 [Compound 14, methyl {4-[7-(2-amino[1,3]thiazolo[5,4-b]pyridin-6-yl)-2,3-dihydro-1,4-benzoxazepin-4(5H)-yl]-2-[(dimethylamino)methyl]-6-methylpyrimidin-5-yl}acetate] | 100 to 500 nM | ≤ 100 nM |
| Cc1nc(N)nc(N2CCOc3ccc(-c4cnc5sc(N)nc5c4)cc3C2)c1C [Compound 5, 6-[4-(2-amino-5,6-dimethylpyrimidin-4-yl)-2,3,4,5-tetrahydro-1,4-benzoxazepin-7-yl][1,3]thiazolo[5,4-b]pyridin-2-amine] | 100 to 500 nM | ≤ 100 nM |
| CC1(C)CCc2nc(N)nc(N3CCOc4ccc(-c5cnc6sc(N)nc6c5)cc4C3)c2C1 [Compound 61, 4-[7-(2-amino[1,3]thiazolo[5,4-b]pyridin-6-yl)-2,3-dihydro-1,4-benzoxazepin-4(5H)-yl]-6,6-dimethyl-5,6,7,8-tetrahydroquinazolin-2-amine] | ≤ 100 nM | ≤ 100 nM |
| C=Cc1c(N2CCOc3ccc(-c4cnc5sc(N)nc5c4)cc3C2)nc(N)nc1C(F)(F)F [Compound 17, 6-{4-[2-amino-5-ethenyl-6-(trifluoromethyl)pyrimidin-4-yl]-2,3,4,5-tetrahydro-1,4-benzoxazepin-7-yl}[1,3]thiazolo[5,4-b]pyridin-2-amine] | ≤ 100 nM | ≤ 100 nM |
| Nc1nc2c(c(N3CCOc4ccc(-c5cnc6sc(N)nc6c5)cc4C3)n1)CCC2 [Compound 15, 6-[4-(2-amino-6,7-dihydro-5H-cyclopenta[d]pyrimidin-4-yl)-2,3,4,5-tetrahydro-1,4-benzoxazepin-7-yl][1,3]thiazolo[5,4-b]pyridin-2-amine] | ≤ 100 nM | ≤ 100 nM |
| Cc1nc(NS(C)(=O)=O)nc(N2CCOc3ccc(-c4cnc5sc(N)nc5c4)cc3C2)c1C(C)C [Compound 23, N-{4-(7-(2-amino[1,3]thiazolo[5,4-b]pyridin-6-yl)-2,3-dihydro-1,4-benzoxazepin-4(5H)-yl]-6-methyl-5-(1-methylethyl)pyrimidin-2-yl}methanesulfonamide] | ≤ 100 nM | 100 to 500 nM |
| CNc1nc(C)c(C(C)C)c(N2CCOc3ccc(-c4cnc5sc(N)nc5c4)cc3C2)n1 [Compound 92, 6-{4-[6-methyl-2-(methylamino)-5-(1-methylethyl)pyrimidin-4-yl]-2,3,4,5-tetrahydro-1,4-benzoxazepin-7-yl}[1,3]thiazolo[5,4-b]pyridin-2-amine] | ≤ 100 nM |  |

Reference: US20140018347A1, “BENZOXAZEPINES AS INHIBITORS OF mTOR AND METHODS OF THEIR USE AND MANUFACTURE” (Exelixis, Inc., priority 2010, published 2014)
